Source: PubChem BioAssay AID2060892 (Molecular Pharmacology Branch, DTP, NCI, 2025)

Tested on: HOP-62 complex spheroids with HUVEC/MSC, viability
Test: Anticancer human tumor HOP-62 cell line growth inhibition [RAS];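 note: spheroids exposed to agents for seven days before readout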;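 for viability, T/C: 100% = DMSO vehicle control viability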
Conditions: for IC50: curve of first compound; for viability, T/C: stronger effect = lower value; active = viability on the fitted dose curve at most 10% of control; inactive = the rest
In short: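 Agents were tested in combination matrices in half-log decrements from a top concentration at or near clinical Cmax (10 microM if undetermined). Targets were multi-cell spheroids of tumour lines plus HUVEC and MSC stromal cells.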

[1] = second compound 0.000949 µM, first compound 0.00316 µM
[2] = second compound 0.000949 µM, first compound 0.01 µM
[3] = second compound 0.000949 µM, first compound 0.0316 µM
[4] = second compound 0.000949 µM, first compound 0.1 µM
[5] = second compound 0.000949 µM, first compound 0.316 µM
[6] = second compound 0.000949 µM, first compound 1 µM
[7] = second compound 0.003 µM, first compound 0.00316 µM
[8] = second compound 0.003 µM, first compound 0.01 µM
[9] = second compound 0.003 µM, first compound 0.0316 µM
[10] = second compound 0.003 µM, first compound 0.1 µM
[11] = second compound 0.003 µM, first compound 0.316 µM
[12] = second compound 0.003 µM, first compound 1 µM
[13] = second compound 0.00949 µM, first compound 0.00316 µM
[14] = second compound 0.00949 µM, first compound 0.01 µM
[15] = second compound 0.00949 µM, first compound 0.0316 µM
[16] = second compound 0.00949 µM, first compound 0.1 µM
[17] = second compound 0.00949 µM, first compound 0.316 µM
[18] = second compound 0.00949 µM, first compound 1 µM
[19] = second compound 0.03 µM, first compound 0.00316 µM
[20] = second compound 0.03 µM, first compound 0.01 µM
[21] = second compound 0.03 µM, first compound 0.0316 µM
[22] = second compound 0.03 µM, first compound 0.1 µM
[23] = second compound 0.03 µM, first compound 0.316 µM
[24] = second compound 0.03 µM, first compound 1 µM
[25] = second compound 0.0949 µM, first compound 0.00316 µM
[26] = second compound 0.0949 µM, first compound 0.01 µM
[27] = second compound 0.0949 µM, first compound 0.0316 µM
[28] = second compound 0.0949 µM, first compound 0.1 µM
[29] = second compound 0.0949 µM, first compound 0.316 µM
[30] = second compound 0.0949 µM, first compound 1 µM
[31] = second compound 0.3 µM, first compound 0.00316 µM
[32] = second compound 0.3 µM, first compound 0.01 µM
[33] = second compound 0.3 µM, first compound 0.0316 µM
[34] = second compound 0.3 µM, first compound 0.1 µM
[35] = second compound 0.3 µM, first compound 0.316 µM
[36] = second compound 0.3 µM, first compound 1 µM
[37] = second compound 0.000949 µM, first compound 3.16 µM
[38] = second compound 0.000949 µM, first compound 10 µM
[39] = second compound 0.003 µM, first compound 3.16 µM
[40] = second compound 0.003 µM, first compound 10 µM
[41] = second compound 0.00949 µM, first compound 3.16 µM
[42] = second compound 0.00949 µM, first compound 10 µM
[43] = second compound 0.03 µM, first compound 3.16 µM
[44] = second compound 0.03 µM, first compound 10 µM
[45] = second compound 0.0949 µM, first compound 3.16 µM
[46] = second compound 0.0949 µM, first compound 10 µM
[47] = second compound 0.3 µM, first compound 3.16 µM
[48] = second compound 0.3 µM, first compound 10 µM

C=CC(=O)Nc1cc(Nc2nccc(-c3cn(C)c4ccccc34)n2)c(OC)cc1N(C)CCN(C)C + CCn1c(-c2cccnc2C(C)OC)c2c3cc(ccc31)N1CCOC(CC(NC(=O)C(C(C)C)N(C)C(=O)C3(F)CCN(C(=O)C#CC(C)(C)N(C)C)CC3)C(=O)N3CCCC(N3)C(=O)OCC(C)(C)C2)C1
inactive: viability, T/C [1] 100% | viability, T/C [2] 107% | viability, T/C [3] 83.9% | viability, T/C [4] 112% | viability, T/C [5] 100% | viability, T/C [6] 54% | viability, T/C [7] 94.1% | viability, T/C [8] 95.4% | viability, T/C [9] 94.1% | viability, T/C [10] 105% | viability, T/C [11] 103% | viability, T/C [12] 71.7% | viability, T/C [13] 92.3% | viability, T/C [14] 84.2% | viability, T/C [15] 85.3% | viability, T/C [16] 90.4% | viability, T/C [17] 73.4% | viability, T/C [18] 54.6% | viability, T/C [19] 97.5% | viability, T/C [20] 90.5% | viability, T/C [21] 83.4% | viability, T/C [22] 78.6% | viability, T/C [23] 60.1% | viability, T/C [24] 66.3% | viability, T/C [25] 96.7% | viability, T/C [26] 80% | viability, T/C [27] 84.2% | viability, T/C [28] 67.3% | viability, T/C [29] 64.3% | viability, T/C [30] 58.6% | viability, T/C [31] 84% | viability, T/C [32] 84% | viability, T/C [33] 73.5% | viability, T/C [34] 62.1% | viability, T/C [35] 60.2% | viability, T/C [36] 54.6%
> 1000 nM: IC50 (second compound 0.000949 µM) | IC50 (second compound 0.003 µM) | IC50 (second compound 0.00949 µM) | IC50 (second compound 0.03 µM) | IC50 (second compound 0.0949 µM) | IC50 (second compound 0.3 µM)

CC(C)NCC(C(=O)N1CCN(c2ncnc3c2C(C)CC3O)CC1)c1ccc(Cl)cc1 (stereo not drawn) + CCn1c(-c2cccnc2C(C)OC)c2c3cc(ccc31)N1CCOC(CC(NC(=O)C(C(C)C)N(C)C(=O)C3(F)CCN(C(=O)C#CC(C)(C)N(C)C)CC3)C(=O)N3CCCC(N3)C(=O)OCC(C)(C)C2)C1
1170 nM: IC50 (second compound 0.0949 µM)
2210 nM: IC50 (second compound 0.003 µM)
3570 nM: IC50 (second compound 0.000949 µM)
742 nM: IC50 (second compound 0.3 µM)
inactive: viability, T/C [3] 98.8% | viability, T/C [4] 119% | viability, T/C [5] 65.4% | viability, T/C [6] 76.4% | viability, T/C [37] 61.6% | viability, T/C [38] 20.3% | viability, T/C [9] 101% | viability, T/C [10] 105% | viability, T/C [11] 65.3% | viability, T/C [12] 67.7% | viability, T/C [39] 47.1% | viability, T/C [40] 21.2% | viability, T/C [15] 81.7% | viability, T/C [16] 100% | viability, T/C [17] 80.1% | viability, T/C [18] 58.9% | viability, T/C [41] 38.5% | viability, T/C [42] 22% | viability, T/C [21] 122% | viability, T/C [22] 83.4% | viability, T/C [23] 72% | viability, T/C [24] 61.8% | viability, T/C [43] 28.3% | viability, T/C [44] 23% | viability, T/C [27] 79% | viability, T/C [28] 80.4% | viability, T/C [29] 69% | viability, T/C [30] 56.2% | viability, T/C [45] 25.5% | viability, T/C [46] 21.1% | viability, T/C [33] 73.2% | viability, T/C [34] 78.9% | viability, T/C [35] 59.3% | viability, T/C [36] 47% | viability, T/C [47] 26.4% | viability, T/C [48] 16.6%
1650 nM: IC50 (second compound 0.00949 µM)
1120 nM: IC50 (second compound 0.03 µM)

CC(Nc1ccc2c(c1)OCCn1cc(N3C(=O)OCC3C(F)F)nc1-2)C(N)=O (stereo not drawn) + CCn1c(-c2cccnc2C(C)OC)c2c3cc(ccc31)N1CCOC(CC(NC(=O)C(C(C)C)N(C)C(=O)C3(F)CCN(C(=O)C#CC(C)(C)N(C)C)CC3)C(=O)N3CCCC(N3)C(=O)OCC(C)(C)C2)C1
659 nM: IC50 (second compound 0.000949 µM)
649 nM: IC50 (second compound 0.003 µM)
inactive: viability, T/C [3] 99.7% | viability, T/C [4] 75.4% | viability, T/C [5] 45.1% | viability, T/C [6] 54.2% | viability, T/C [37] 50.6% | viability, T/C [38] 23.9% | viability, T/C [9] 87% | viability, T/C [10] 85.9% | viability, T/C [11] 42.3% | viability, T/C [12] 50.9% | viability, T/C [39] 36.6% | viability, T/C [40] 19.6% | viability, T/C [15] 99.3% | viability, T/C [16] 60.1% | viability, T/C [17] 51.9% | viability, T/C [18] 46.9% | viability, T/C [41] 32.1% | viability, T/C [42] 22.4% | viability, T/C [21] 124% | viability, T/C [22] 59.4% | viability, T/C [23] 55.2% | viability, T/C [24] 42.3% | viability, T/C [43] 25.6% | viability, T/C [44] 22.8% | viability, T/C [27] 103% | viability, T/C [28] 53.9% | viability, T/C [29] 43.9% | viability, T/C [30] 37% | viability, T/C [45] 20.1% | viability, T/C [46] 19% | viability, T/C [33] 58.5% | viability, T/C [34] 49.8% | viability, T/C [35] 47.9% | viability, T/C [36] 30.2% | viability, T/C [47] 25.2% | viability, T/C [48] 19.1%
326 nM: IC50 (second compound 0.00949 µM)
260 nM: IC50 (second compound 0.03 µM)
182 nM: IC50 (second compound 0.0949 µM)
152 nM: IC50 (second compound 0.3 µM)

O=C(c1ccc(F)c(F)c1Nc1ccc(I)cc1F)N1CC(O)([C@@H]2CCCCN2)C1 + CCn1c(-c2cccnc2C(C)OC)c2c3cc(ccc31)N1CCOC(CC(NC(=O)C(C(C)C)N(C)C(=O)C3(F)CCN(C(=O)C#CC(C)(C)N(C)C)CC3)C(=O)N3CCCC(N3)C(=O)OCC(C)(C)C2)C1
114 nM: IC50 (second compound 0.0949 µM)
71.4 nM: IC50 (second compound 0.3 µM)
inactive: viability, T/C [1] 107% | viability, T/C [2] 123% | viability, T/C [3] 82% | viability, T/C [4] 87.2% | viability, T/C [5] 52.4% | viability, T/C [6] 25.6% | viability, T/C [7] 106% | viability, T/C [8] 93.9% | viability, T/C [9] 90.3% | viability, T/C [10] 110% | viability, T/C [11] 74.9% | viability, T/C [12] 46.9% | viability, T/C [13] 85.6% | viability, T/C [14] 75.6% | viability, T/C [15] 78.3% | viability, T/C [16] 60.6% | viability, T/C [17] 36.7% | viability, T/C [18] 30.9% | viability, T/C [19] 88.8% | viability, T/C [20] 85.8% | viability, T/C [21] 71.8% | viability, T/C [22] 60.9% | viability, T/C [23] 28.4% | viability, T/C [24] 32.6% | viability, T/C [25] 87.6% | viability, T/C [26] 78.2% | viability, T/C [27] 72.2% | viability, T/C [28] 55.8% | viability, T/C [29] 27.1% | viability, T/C [30] 26.6% | viability, T/C [31] 82.9% | viability, T/C [32] 70% | viability, T/C [33] 67.3% | viability, T/C [34] 42.4% | viability, T/C [35] 31.4% | viability, T/C [36] 26.1%
135 nM: IC50 (second compound 0.03 µM)
881 nM: IC50 (second compound 0.003 µM)
167 nM: IC50 (second compound 0.00949 µM)
378 nM: IC50 (second compound 0.000949 µM)
